*1 amine or outer side, *2 acyl side, *3 side chain or, on linkers, in order; H or OH if unused. Where a SMILES comes first, the peptide text is derived from it. Bridges are numbered along the chain shown (N, C = ends). Side-chain parts run from the residue outwards. [ ]: non-standard residue; d: D form. The star is where a group is joined. X1 = O=C(COCC(=O)*)NCCOCCOCCOCCOCCOCCNC(=O)CO/N=C/c1ccc(F)cc1; DOTA = O=C(O)CN1CCN(CC(=O)O)CCN(CC(=O)*)CCN(CC(=O)O)CC1; Gly(2R-SCH2CO) = O=C([C@H](N[*:1])SCC(=O)[*:3])[*:2]; X3 = C/C(=N\O)C(C)(C)NCCC(CCNC(C)(C)/C(C)=N/O)CCN*; Gly(αR-SH) = O=C([C@H](N[*:1])S[*:3])[*:2]; Glutaryl = O=C(CCCC(=O)[*:2])[*:1]; X2 = NC(=O)COCC(=O)NCCOCCOCCOCCN*
Test: Displacement of [125I]echistatin from AlphaVbeta3/AlphaVbeta5 integrin receptor in EAHy 926 cells
Format: cell-based, Homo sapiens
Work on `CC[N+]1=C(/C=C/C=C/C=C2/N(CCCCCC(=O)NCCCC[C@@H]3NC(=O)CS[C@H](C(=O)NCCOCCOCCOCCNC(=O)COCC(N)=O)NC(=O)[C@H](Cc4ccccc4)NC(=O)[C@@H]4NC(=O)[C@H](CC(=O)O)NC(=O)CNC(=O)[C@H](CCCNC(=N)N)NC(=O)[C@H](NC3=O)SS4)c3ccc4c(S(=O)(=O)O)cc(S(=O)(=O)O)cc4c3C2(C)C)C(C)(C)c2c1ccc1c(S(=O)(=O)[O-])cc(S(=O)(=O)O)cc21` yielded a Ki of 0.75 nM. `N=C(N)NCCC[C@@H]1NC(=O)[C@@H]2NC(=O)[C@H](CCCCNC(=O)CN3CCN(CC(=O)O)CCN(CC(=O)O)CCN(CC(=O)O)CC3)NC(=O)CS[C@H](C(=O)NCCOCCOCCOCCNC(=O)COCC(N)=O)NC(=O)[C@H](Cc3ccccc3)NC(=O)[C@H](NC(=O)[C@H](CC(=O)O)NC(=O)CNC1=O)SS2` (K(DOTA)[Gly(αR-SH)]RGD[Gly(αR-SH)]F[Gly(2R-SCH2CO)]-X2; disulfide 2-6; lactam N-8) showed a Ki of 3.2 nM. Work on `N=C(N)NCCC[C@@H]1NC(=O)[C@@H]2NC(=O)[C@H](CCCCNC(=O)COCC(=O)NCCOCCOCCOCCOCCOCCNC(=O)CO/N=C/c3ccc(F)cc3)NC(=O)CS[C@H](C(=O)NCCOCCOCCOCCNC(=O)COCC(N)=O)NC(=O)[C@H](Cc3ccccc3)NC(=O)[C@H](NC(=O)[C@H](CC(=O)O)NC(=O)CNC1=O)SS2` (K(X1)[Gly(αR-SH)]RGD[Gly(αR-SH)]F[Gly(2R-SCH2CO)]-X2; disulfide 2-6; lactam N-8) yielded a Ki of 8.2 nM. Work on `C/C(=N\O)C(C)(C)NCCC(CCNC(=O)CCCC(=O)NCCCC[C@@H]1NC(=O)CS[C@H](C(=O)NCCOCCOCCOCCNC(=O)COCC(N)=O)NC(=O)[C@H](Cc2ccccc2)NC(=O)[C@@H]2NC(=O)[C@H](CC(=O)O)NC(=O)CNC(=O)[C@H](CCCNC(=N)N)NC(=O)[C@H](NC1=O)SS2)CCNC(C)(C)/C(C)=N/O` (K([Glutaryl-X3])[Gly(αR-SH)]RGD[Gly(αR-SH)]F[Gly(2R-SCH2CO)]-X2; disulfide 2-6; lactam N-8) yielded a Ki of 3.1 nM. In the case of `N=C(N)NCCC[C@@H]1NC(=O)[C@@H]2NC(=O)[C@H](CCCCN)NC(=O)CS[C@H](C(=O)NCCOCCOCCOCCNC(=O)COCC(N)=O)NC(=O)[C@H](Cc3ccccc3)NC(=O)[C@H](NC(=O)[C@H](CC(=O)O)NC(=O)CNC1=O)SS2` (K[Gly(αR-SH)]RGD[Gly(αR-SH)]F[Gly(2R-SCH2CO)]-X2; disulfide 2-6; lactam N-8), the Ki is reported as 6.8 nM.
